Earlier results, collected in US20070092586A1, “Compositions and methods for the administration psychotropic drugs which modulate body weight” (Alamo Pharmaceuticals, priority 2005, published 2007).

Assays:
[1] = lithium maintenance therapy; J. Clin. Psychopharmacol. 1988

Compound	increase in body weight (mean) (59 patients taking clozapine for an unstated period, P<0.05, Gerlach et al. 1989)	mean increase in body weight (over 21 months, patients who responded to clozapine and remained clinically stable, Jalenques et al. 1996)	patients with weight gains of over 10 kg [1]
CN1CCN(C2=Nc3cc(Cl)ccc3Nc3ccccc32)CC1 [clozapine, 8-chloro-11-(4-methyl-1-piperazinyl)-5H-dibenzo[b,e] [1,4] diazepine]	2.8 kg	12.4 kg	–
O=C([O-])[O-].[Li+].[Li+] [lithium]	–	–	20%
